In US12115152B2, “Pan-RAF kinase inhibitor and use thereof” (HEFEI INSTITUTES OF PHYSICAL SCIENCE, CHINESE ACADEMY OF …, priority 2019, dated 2024):
“And” between values parts separate entries of the source, which are not always exact repeats. Identical values can stand only once. Like-named read-outs stand apart in the source and are kept apart here.

Columns and labels:
[1] = Pharmacokinetic parameters in rats; type: in vivo, SD rats; details: rat
Procedure: In the example, SD rats (180-220 g, male) (purchased from Experimental Animal Center of Anhui Medical University, China) were used. The animals were kept in cages ventilated independently with 6 rats per cage. The feeding was performed at a temperature of 20˜26° C. and a humidity of 35-75%. The light condition was 12 hours of lighting/12 hours of darkness. The corncob bedding was refreshed once a week. The rats were fed with foods and drinking water on an ad libitum basis. The rats were marked with a number on the tails. During the experiment, the breeding and use of animals strictly follow the regulations of Association for Assessment and Accreditation of Laboratory Animal Care International.
Solutions of Compound 16 and Comparative Compound 1 were prepared as follows. 10 mg of the compound to be tested was precisely weighed into a sterile vial, and was dissolved with a small amount of DMSO, and then was made to a constant volume of 5 ml with 5% glucose solution, to give a gavage test solution at a concentration of 2 mg/mL. 0.5 ml of the above gavage test solution at a concentration of 2 mg/mL was precisely taken, and was made to constant volume of 5 ml with 4.5 ml of 5% glucose solution, to give an intravenous injection test solution at a concentration of 0.2 mg/mL. The solution was prepared immediately before being used in the experiment.
6 SD rats were randomly divided into two groups, and the synthesized compounds were administered by gavage and tail vein injection, respectively. About 0.3 mL of blood samples were collected from the retro-orbital venous plexus at 0 h before administration and at 5 min, 15 min, 30 min, 1 h, 1.5 h, 2 h, 4 h, 6 h, 9 h, 12 h, 24 h after administration for the gavage group; and at 0 h before administration and at 2 min, 5 min, 15 min, 30 min, 1 h, 2 h, 4 h, 6 h, 9 h, and 12 h after administration for the tail vein group. Each of the collected blood samples was put in a 1.5 mL centrifuge tube with heparin (Sigma, USA). The sample was centrifuged at 6000 rpm for 3 min to separate the plasma. 100 μL of plasma in the upper layer was placed into a new 1.5 mL centrifuge tube, and stored at −80° C. for determination. 10 mg of a standard for the compound to be tested was precisely weighed into a 10 mL volumetric flask, and was dissolved by adding methanol to make a constant volume and mixed uniformly, to give a 1 mg/mL stock solution. The stock solution was then diluted gradually with methanol to give a series of working solutions at concentrations of 0.01, 0.02, 0.05, 0.1, 0.2, 0.5, 1, 2, 5, 10, 20 μg/mL. The working solutions were placed in a refrigerator at 4° C. for later use. 11 centrifuge tubes were used. 10 μL of the above working solutions was respectively added to each of the centrifuge tubes, and then 90 μL of blank rat plasma was respectively added therein. The mixtures were mixed uniformly, so that the concentration of the compound in the rat plasma was 1, 2, 5, 10, 20, 50, 100, 200, 500, 1000, 2000 ng/mL. Then, 20 μL of a solution of caffeine as the internal standard (200 ng/mL) (National Institutes for Food and Drug Control, China) was added therein, and the resultant mixtures were vortexed for 10 s. Next, 400 μL of methanol was added. The resultant mixtures were vortexed for 10 min, and centrifuged at 16000 rpm for 5 min. Thereafter, 70 μL of the supernatant was placed into the inserted pipe of a sampling bottle. 5 μL of the sample was introduced for a LC-MS/MS analysis. A standard curve of the compound in the rat plasma was obtained by means of a linear regression performed by taking the ratio of the peak area of the sample to that of the internal standard As/Ais as the vertical ordinate, taking the concentration C (μg/mL) as the horizontal ordinate, and taking 1/C^2 was taken as a weighting coefficient.
To 100 μL of the rat plasma to be tested stored at −80° C., 20 μL of a caffeine solution (200 ng/mL) as the internal standard was added. The resultant mixture was vortexed for 10 s. […]

[2] = system: Calu-6 transplanted tumor nude mice; assay: Toxicity in Calu-6 cell transplanted tumor mouse model; details: Calu-6 cell transplanted tumor model, oral daily; Compound 16 50, 100, 200 mg/kg; Comparative Compound 1 100 mg/kg
[3] = male, Sprague-Dawley, plasma, iv, 1 mg/kg, intravenous injection 1 mg/kg, average n=3
[4] = male, Sprague-Dawley, plasma, iv, 1 mg/kg, intravenous injection 1 mg/kg, individual rats #1-#3
[5] = intravenous injection 1 mg/kg, average n=3
[6] = intravenous injection 1 mg/kg, individual rats #1-#3, listed as Comparative Compound 1, 1 mg/kg
[7] = oral administration (gavage) 10 mg/kg, average n=3
[8] = oral administration (gavage) 10 mg/kg, individual rats #1-#3, listed as Comparative Compound 1, 10 mg/kg

Cc1ccc(NC(=O)c2cccc(C(F)(F)F)c2)cc1-n1cc(-c2cccnc2)cn1 [compound 1, 3-trifluoromethyl-N-(4-methyl-3-(4-(pyrid-3-yl)-1H-pyrazol-1-yl)phenyl)benzamide, reference compound]
AUC(0-inf) ([1]; male, SD, plasma, po, 10 mg/kg, oral administration (gavage) 10 mg/kg, average n=3): 1020 ng·h/mL | Tmax ([1]; male, SD, plasma, po, 10 mg/kg, oral administration (gavage) 10 mg/kg, average n=3, read-out: Tmax): 30 min | half-life ([1]; male, SD, plasma, po, 10 mg/kg, oral administration (gavage) 10 mg/kg, average n=3, read-out: T½ (converted)): 54.4 min | Tmax ([1]; male, SD, plasma, po, 10 mg/kg, oral administration (gavage) 10 mg/kg, individual rats #1-#3, read-out: Tmax): 30 min | half-life ([1]; male, SD, plasma, po, 10 mg/kg, oral administration (gavage) 10 mg/kg, individual rats #1-#3, read-out: T½ (converted)): 60.2 min | AUC(0-inf) [1, 3]: 92.5 ng·h/mL | clearance [1, 3]: 188 mL/min/kg | AUC0-t ([1]; male, Sprague-Dawley, plasma, iv, 1 mg/kg, intravenous injection 1 mg/kg, average n=3, read-out: AUC0-t): 91.6 ng·h/mL | C0 ([1]; male, Sprague-Dawley, plasma, iv, 1 mg/kg, intravenous injection 1 mg/kg, average n=3, read-out: C0): 348 ng/mL | Cmax ([1]; male, Sprague-Dawley, plasma, iv, 1 mg/kg, intravenous injection 1 mg/kg, average n=3, read-out: Cmax): 262 ng/mL | MRT last ([1]; male, Sprague-Dawley, plasma, iv, 1 mg/kg, intravenous injection 1 mg/kg, average n=3, read-out: MRT0-t): 34 min | MRT inf ([1]; male, Sprague-Dawley, plasma, iv, 1 mg/kg, intravenous injection 1 mg/kg, average n=3, read-out: MRT0-∞): 37 min | Tmax ([1]; male, Sprague-Dawley, plasma, iv, 1 mg/kg, intravenous injection 1 mg/kg, average n=3, read-out: Tmax): 1.98 min | half-life ([1]; male, Sprague-Dawley, plasma, iv, 1 mg/kg, intravenous injection 1 mg/kg, average n=3, read-out: T½ (converted)): 42.9 min | Vd ([1]; male, Sprague-Dawley, plasma, iv, 1 mg/kg, intravenous injection 1 mg/kg, average n=3, read-out: Vz): 12 L/kg | AUC(0-inf) [1, 4]: 84 ng·h/mL | clearance [1, 4]: 198 mL/min/kg | AUC0-t ([1]; male, Sprague-Dawley, plasma, iv, 1 mg/kg, intravenous injection 1 mg/kg, individual rats #1-#3, read-out: AUC0-t): 83.3 ng·h/mL | C0 ([1]; male, Sprague-Dawley, plasma, iv, 1 mg/kg, intravenous injection 1 mg/kg, individual rats #1-#3, read-out: C0): 260 ng/mL | Cmax ([1]; male, Sprague-Dawley, plasma, iv, 1 mg/kg, intravenous injection 1 mg/kg, individual rats #1-#3, read-out: Cmax): 200 ng/mL | MRT last ([1]; male, Sprague-Dawley, plasma, iv, 1 mg/kg, intravenous injection 1 mg/kg, individual rats #1-#3, read-out: MRT0-t): 36.3 min | MRT inf ([1]; male, Sprague-Dawley, plasma, iv, 1 mg/kg, intravenous injection 1 mg/kg, individual rats #1-#3, read-out: MRT0-∞): 38.5 min | Tmax ([1]; male, Sprague-Dawley, plasma, iv, 1 mg/kg, intravenous injection 1 mg/kg, individual rats #1-#3, read-out: Tmax): 1.98 min | half-life ([1]; male, Sprague-Dawley, plasma, iv, 1 mg/kg, intravenous injection 1 mg/kg, individual rats #1-#3, read-out: T½ (converted)): 38.8 min | bioavailability ([1]; male, Sprague-Dawley, plasma, oral, 10 mg/kg, oral administration (gavage) 10 mg/kg vs intravenous 1 mg/kg, average n=3, read-out: F (oral bioavailability)): 111% | AUC0-t ([1]; male, Sprague-Dawley, plasma, po, 10 mg/kg, oral administration (gavage) 10 mg/kg, average n=3, read-out: AUC0-t): 1010 ng·h/mL | Cmax ([1]; male, Sprague-Dawley, plasma, po, 10 mg/kg, oral administration (gavage) 10 mg/kg, average n=3, read-out: Cmax): 576 ng/mL | MRT last ([1]; male, Sprague-Dawley, plasma, po, 10 mg/kg, oral administration (gavage) 10 mg/kg, average n=3, read-out: MRT0-t): 93.7 min | MRT inf ([1]; male, Sprague-Dawley, plasma, po, 10 mg/kg, oral administration (gavage) 10 mg/kg, average n=3, read-out: MRT0-∞): 98.5 min | MRT last ([1]; male, Sprague-Dawley, plasma, po, 10 mg/kg, oral administration (gavage) 10 mg/kg, individual rats #1-#3, read-out: MRT0-t): 109 min | MRT inf ([1]; male, Sprague-Dawley, plasma, po, 10 mg/kg, oral administration (gavage) 10 mg/kg, individual rats #1-#3, read-out: MRT0-∞): 115 min | AUMC0-t [1, 5]: 53.50 hr*hr*ng/ml | AUMC0-∞ [1, 5]: 58.31 hr*hr*ng/ml | AUC0-t [1, 6]: 71.86 ng·h/mL and 119.59 ng·h/mL | AUC0-∞ [1, 6]: 73.08 ng·h/mL and 120.51 ng·h/mL | AUMC0-t [1, 6]: 50.39 hr*hr*ng/ml and 31.52 hr*hr*ng/ml and 78.58 hr*hr*ng/ml | AUMC0-∞ [1, 6]: 53.89 hr*hr*ng/ml and 37.99 hr*hr*ng/ml and 83.06 hr*hr*ng/ml | C0 [1, 6]: 402.4 ng/mL and 380.8 ng/mL | Cl [1, 6]: 228.07 mL/min/kg and 138.3 mL/min/kg | Cmax [1, 6]: 285.0 ng/mL and 300.0 ng/mL | MRT0-t [1, 6]: 26.3 min and 39.4 min | MRT0-∞ [1, 6]: 31.2 min and 41.3 min | T½ [1, 6]: 54.4 min and 35.5 min | Vz [1, 6]: 11.101 L/kg and 17.886 L/kg and 7.085 L/kg | F (oral bioavailability) ([1]; oral administration (gavage) 10 mg/kg vs intravenous 1 mg/kg, individual rats #1-#3, listed as Comparative Compound 1): 31.2% and 133.6% and 167.2% | AUMC0-t [1, 7]: 1474 hr*hr*ng/ml | AUMC0-∞ [1, 7]: 1566 hr*hr*ng/ml | Cl [1, 7]: 273.12 mL/min/kg | Vz [1, 7]: 22.672 L/kg | AUC0-t [1, 8]: 285.6 ng·h/mL and 1217 ng·h/mL and 1532 ng·h/mL | AUC0-∞ [1, 8]: 289.0 ng·h/mL and 1236 ng·h/mL and 1547 ng·h/mL | AUMC0-t [1, 8]: 518.7 hr*hr*ng/ml and 1889 hr*hr*ng/ml and 2013 hr*hr*ng/ml | AUMC0-∞ [1, 8]: 554.4 hr*hr*ng/ml and 2023 hr*hr*ng/ml and 2121 hr*hr*ng/ml | Cl [1, 8]: 576.77 mL/min/kg and 134.8 mL/min/kg and 107.8 mL/min/kg | Cmax [1, 8]: 138 ng/mL and 579 ng/mL and 1010 ng/mL | MRT0-t [1, 8]: 93.12 min and 78.84 min | MRT0-∞ [1, 8]: 98.22 min and 82.26 min | T½ [1, 8]: 49.3 min and 53.6 min | Vz [1, 8]: 50.104 L/kg and 9.579 L/kg and 8.334 L/kg | toxicity [2]: very strong toxicity as all mice died on Day 8
